Measured values: patent US20150258059A1, “ANTIMICROBIAL AND RADIOPROTECTIVE COMPOUNDS” (BioDiem, Ltd, priority 2001, published 2015)
Values after ≈ are worked out from the molar mass of the structure shown.

Key:
[1] = test system: Klebsiella pneumoniae M-A21; assay: Sensitivity of strains: suppression of growth; format: cell-based; conditions: Compound (1) 1.0%; antibiotics disc method
[2] = test system: Conditional pathogenic enterobacteria gram-negative aerobic bacilli; format: cell-based; note: key: + sensitive strains; + moderately sensitive strains; − stable strains
[3] = test system: Klebsiella pneumoniae M-248; assay: Sensitivity of strains: suppression of growth; format: cell-based; conditions: Compound (1) 1.0%; antibiotics disc method
[4] = test system: Shigella flexneri M-2A6907; assay: Sensitivity of strains: suppression of growth; format: cell-based; conditions: Compound (1) 1.0%; antibiotics disc method
[5] = test system: Salmonella paratyphi M-16469; assay: Sensitivity of strains: suppression of growth; format: cell-based; conditions: Compound (1) 1.0%; antibiotics disc method
[6] = test system: Escherichia coli M-17; assay: Sensitivity of strains: suppression of growth; format: cell-based; conditions: Compound (1) 1.0%; antibiotics disc method
[7] = test system: Escherichia coli B-683; assay: Sensitivity of strains: suppression of growth; format: cell-based; conditions: Compound (1) 1.0%; antibiotics disc method
[8] = test system: Staphylococcus epidermidis BK-30; assay: Sensitivity of strains: suppression of growth; format: cell-based; conditions: Compound (1) 1.0%; antibiotics disc method
[9] = test system: Staphylococcus aureus B-685; assay: Sensitivity of strains: suppression of growth; format: cell-based; conditions: Compound (1) 1.0%; antibiotics disc method
[10] = test system: Pseudomonas aeruginosa B-601; assay: Sensitivity of strains: suppression of growth; format: cell-based; conditions: Compound (1) 1.0%; antibiotics disc method
[11] = test system: Alkaligenes sp. B-689; assay: Sensitivity of strains: suppression of growth; format: cell-based; conditions: Compound (1) 1.0%; antibiotics disc method
[12] = test system: Acinetobacter B-681; assay: Sensitivity of strains: suppression of growth; format: cell-based; conditions: Compound (1) 1.0%; antibiotics disc method
[13] = test system: Staphylococcus aureus M-209; assay: Sensitivity of strains: suppression of growth; format: cell-based; conditions: Compound (1) 1.0%; antibiotics disc method
[14] = test system: Staphylococcus aureus M-12159; assay: Sensitivity of strains: suppression of growth; format: cell-based; conditions: Compound (1) 1.0%; antibiotics disc method
[15] = test system: Neisseria meningitidis M-6231; assay: Sensitivity of strains: suppression of growth; format: cell-based; conditions: Compound (1) 1.0%; antibiotics disc method
[16] = test system: Neisseria meningitidis M-A72; assay: Sensitivity of strains: suppression of growth; format: cell-based; conditions: Compound (1) 1.0%; antibiotics disc method
[17] = test system: Salmonella typhimurium M-727; assay: Sensitivity of strains: suppression of growth; format: cell-based; conditions: Compound (1) 1.0%; antibiotics disc method
[18] = test system: γ-hemolytic streptococcus B-672; assay: Sensitivity of strains: suppression of growth; format: cell-based; conditions: Compound (1) 1.0%; antibiotics disc method
[19] = test system: Enterobacter aerogenes B-679; assay: Sensitivity of strains: suppression of growth; format: cell-based; conditions: Compound (1) 1.0%; antibiotics disc method
[20] = test system: Staphylococcus aureus B-674; assay: Sensitivity of strains: suppression of growth; format: cell-based; conditions: Compound (1) 1.0%; antibiotics disc method
[21] = test system: Alkaligenes sp. B-667; assay: Sensitivity of strains: suppression of growth; format: cell-based; conditions: Compound (1) 1.0%; antibiotics disc method
[22] = test system: Citrobacter diversus B-678; assay: Sensitivity of strains: suppression of growth; format: cell-based; conditions: Compound (1) 1.0%; antibiotics disc method
[23] = test system: Staphylococci epidermidis D-513; assay: Sensitivity of strains: suppression of growth; format: cell-based; conditions: Compound (1) 1.0%; antibiotics disc method
[24] = test system: Enterobacter aerogenes B-687; assay: Sensitivity of strains: suppression of growth; format: cell-based; conditions: Compound (1) 1.0%; antibiotics disc method
[25] = test system: Acinetobacter B-677; assay: Sensitivity of strains: suppression of growth; format: cell-based; conditions: Compound (1) 1.0%; antibiotics disc method
[26] = test system: Yersinia pseudotuberculosis; format: cell-based; conditions: Compound (1) 1.0%; antibiotics disc method
[27] = test system: Shigella sonnei B-720; assay: Sensitivity of strains: suppression of growth; format: cell-based; conditions: Compound (1) 1.0%; antibiotics disc method
[28] = test system: Escherichia coli B-65; assay: Sensitivity of strains: suppression of growth; format: cell-based; conditions: Compound (1) 1.0%; antibiotics disc method
[29] = test system: Corynebacterium diphtheriae B-670; assay: Sensitivity of strains: suppression of growth; format: cell-based; conditions: Compound (1) 1.0%; antibiotics disc method
[30] = test system: Acinetobacter B-676; assay: Sensitivity of strains: suppression of growth; format: cell-based; conditions: Compound (1) 1.0%; antibiotics disc method
[31] = test system: β-hemolytic streptococcus B-624; assay: Sensitivity of strains: suppression of growth; format: cell-based; conditions: Compound (1) 1.0%; antibiotics disc method
[32] = test system: Bacillus sp. B-575; assay: Sensitivity of strains: suppression of growth; format: cell-based; conditions: Compound (1) 1.0%; antibiotics disc method; note: key: + sensitive strains; + moderately sensitive strains; − stable strains
[33] = test system: Mycobact tub. H.37RV; assay: Anti-TB effect, serial double dilution in liquid medium; format: cell-based, M tuberculosis; conditions: 10-14 days incubation at 37° C.; read-out: Minimal Inhibitory Concentration

Row | Molecule | Suppression of Growth (+/−) [1] | Suppression of Growth (+/−) [2] | Suppression of Growth (+/−) [3] | Suppression of Growth (+/−) [4] | Suppression of Growth (+/−) [5] | Suppression of Growth (+/−) [6] | Suppression of Growth (+/−) [7] | Suppression of Growth (+/−) [8] | Suppression of Growth (+/−) [9] | Suppression of Growth (+/−) [10] | Suppression of Growth (+/−) [11] | Suppression of Growth (+/−) [12] | Suppression of Growth (+/−) [13] | Suppression of Growth (+/−) [14] | Suppression of Growth (+/−) [15] | Suppression of Growth (+/−) [16] | Suppression of Growth (+/−) [17] | Suppression of Growth (+/−) [18] | Suppression of Growth (+/−) [19] | Suppression of Growth (+/−) [20] | other results
1 | CCC[C@@H]1C[C@@H](C(=O)N[C@@H]([C@H]2O[C@H](SC)[C@H](O)[C@@H](O)[C@H]2O)[C@@H](C)O)N(C)C1 [Antibiotic 6, lincomycin] | − | − | − | − | − | − | − | − | − | − | − | − | − | − | − | − | − | − | − | − | Suppression of Growth (+/−) [21]: −; Suppression of Growth (+/−) [22]: −; Suppression of Growth (+/−) [23]: +; Suppression of Growth (+/−) [24]: −; Suppression of Growth (+/−) [25]: −; Suppression of Growth (+/−) [26]: −; Suppression of Growth (+/−) [27]: −; Suppression of Growth (+/−) [28]: +; Suppression of Growth (+/−) [29]: −; Suppression of Growth (+/−) [30]: −; Suppression of Growth (+/−) [31]: −; Suppression of Growth (+/−) [32]: +
2 | CC[C@@H](CO)NCCN[C@@H](CC)CO [Ethambutol] |  |  |  |  |  |  |  |  |  |  |  |  |  |  |  |  |  |  |  |  | MIC [33]: 1 to 2.5 µg/mL (≈ 4.89 to 12.2 µM)
3 | gentamycin [Antibiotic 3] | − | − | − | + | − | + | + | − | + | + | + | − | + | + | − | − | − | − | − | + | Suppression of Growth (+/−) [21]: −; Suppression of Growth (+/−) [22]: +; Suppression of Growth (+/−) [23]: +; Suppression of Growth (+/−) [24]: −; Suppression of Growth (+/−) [25]: −; Suppression of Growth (+/−) [26]: −; Suppression of Growth (+/−) [27]: −; Suppression of Growth (+/−) [28]: +; Suppression of Growth (+/−) [29]: +; Suppression of Growth (+/−) [30]: −; Suppression of Growth (+/−) [31]: −
4 | NNC(=O)c1ccncc1 [Isoniazid] |  |  |  |  |  |  |  |  |  |  |  |  |  |  |  |  |  |  |  |  | MIC [33]: 0.02 to 0.1 µg/mL (≈ 0.146 to 0.729 µM)
